# System: hypoxia-inducible endogenous VEGF expression in HeLa cells
# Assay: Hypoxia-inducible endogenous VEGF expression, VEGF ELISA of conditioned media (dose-response EC50)
# Type: cell-based
# Conditions: HeLa cells under hypoxic conditions
# Experimental: The ability of the compounds of the invention to modulate hypoxia-inducible endogenous VEGF expression may be analyzed as follows. VEGF protein levels may be monitored by an ELISA assay (R&D Systems). Briefly, HeLa cells may be cultured for 24-48 hours under hypoxic conditions (1% O2, 5% CO2, balanced with nitrogen) in the presence or absence of a compound of the invention. The conditioned media may then be assayed by ELISA, and the concentration of VEGF calculated from the standard ELISA curve of each assay.
# A dose-response analysis may be performed using the ELISA assay and conditions described above. The conditions for the dose-response ELISA are analogous to those described above. A series of, e.g., seven different concentrations may be analyzed. […] Dose-response curves may be plotted using percentage inhibition versus concentration of the compound, and EC50 and CC50 values may be generated for each compound with the maximal inhibition set as 100% and the minimal inhibition as 0%.
row,SMILES,EC50 [nM]
1,CCOC(=O)N1CCc2c([nH]c3ccc(Br)cc23)C1c1ccc([N+](=O)O)cc1 (stereo not shown) [Compound 59],8 to 40

# Same assay, conditions: Homo sapiens, HeLa cells under hypoxic conditions
row,SMILES,EC50 [nM]
1,CCOC(=O)N1CCc2c([nH]c3ccc(Br)cc23)C1c1ccc(C)cc1 (stereo not shown) [#8],< 8
2,CCOC(=O)N1CCc2c([nH]c3ccc(Cl)cc23)C1c1ccc([N+](=O)[O-])cc1 (stereo not shown) [#74],8 to 40
3,COc1ccc(OC(=O)N2CCc3c([nH]c4ccc(Br)cc34)[C@@H]2c2ccc(Cl)cc2)cc1 [#332],> 1000
4,COc1ccc(C2c3[nH]c4ccc(Cl)cc4c3CCN2c2cnccn2)cc1 (stereo not shown) [Compound 1],8 to 40
5,CCOC(=O)N1CCc2c([nH]c3ccc(Cl)cc23)C1c1ccc(OC)cc1 (stereo not shown) [Compound 2],< 8
6,CCOC(=O)N1CCc2c([nH]c3ccc(Br)cc23)C1c1ccc(Br)cc1 (stereo not shown) [Compound 3],< 8
7,CCOC(=O)N1CCc2c([nH]c3ccc(Br)cc23)C1c1ccc(Cl)cc1 (stereo not shown) [Compound 4],< 8
8,CCOC(=O)N1CCc2c([nH]c3ccc(Cl)cc23)C1c1cccc(F)c1F (stereo not shown) [Compound 5],< 8
9,O=C(OCCCl)N1CCc2c([nH]c3ccc(Cl)cc23)C1c1cccc(F)c1F (stereo not shown) [Compound 6],< 8
10,CCOC(=O)N1CCc2c([nH]c3ccc(Cl)cc23)C1c1ccc(Cl)cc1 (stereo not shown) [Compound 11],< 8
11,N#Cc1ccc(C2c3[nH]c4ccc(Cl)cc4c3CCN2C(=O)OCCCl)cc1 (stereo not shown) [Compound 12],< 8
12,CCCOC(=O)N1CCc2c([nH]c3ccc(Cl)cc23)C1c1ccc(C(C)C)cc1 (stereo not shown) [Compound 13],< 8
13,CCOC(=O)N1CCc2c([nH]c3ccc(Cl)cc23)C1c1ccc(C(C)C)cc1 (stereo not shown) [Compound 14],< 8
14,O=C(OCCCl)N1CCc2c([nH]c3ccc(Cl)cc23)C1c1cccc(C(F)(F)F)c1 (stereo not shown) [Compound 15],< 8
15,CCOC(=O)N1CCc2c([nH]c3ccc(Br)cc23)C1c1cccc(Cl)c1 (stereo not shown) [Compound 16],< 8
16,COc1ccc(C2c3[nH]c4ccc(Cl)cc4c3CCN2C(=O)Oc2ccc(C)cc2)cc1 (stereo not shown) [Compound 17],< 8
17,CC(C)c1ccc(C2c3[nH]c4ccc(Cl)cc4c3CCN2C(=O)OCCCl)cc1 (stereo not shown) [Compound 18],< 8
18,CCCOC(=O)N1CCc2c([nH]c3ccc(Cl)cc23)C1c1ccc(C(F)(F)F)cc1 (stereo not shown) [Compound 19],< 8
19,CCOC(=O)N1CCc2c([nH]c3ccc(Cl)cc23)C1c1cccc(Cl)c1 (stereo not shown) [Compound 20],< 8
20,CCOC(=O)N1CCc2c([nH]c3ccc(Cl)cc23)C1c1ccc(F)cc1F (stereo not shown) [Compound 21],< 8
21,O=C(OCCCl)N1CCc2c([nH]c3ccc(Cl)cc23)C1c1cc(F)ccc1F (stereo not shown) [Compound 22],< 8
22,CCOC(=O)N1CCc2c([nH]c3ccc(Cl)cc23)C1c1ccc(F)cc1 (stereo not shown) [Compound 23],< 8
23,CC(C)OC(=O)N1CCc2c([nH]c3ccc(Cl)cc23)C1c1ccc(C(C)C)cc1 (stereo not shown) [Compound 24],< 8
24,CC(C)OC(=O)N1CCc2c([nH]c3ccc(Cl)cc23)C1c1ccc(C(F)(F)F)cc1 (stereo not shown) [Compound 26],< 8
25,CCOC(=O)N1CCc2c([nH]c3ccc(Br)cc23)C1c1ccccc1 (stereo not shown) [Compound 27],< 8

row,SMILES,EC50 [nM]
1,CCCOC(=O)N1CCc2c([nH]c3ccc(Cl)cc23)C1c1ccc(OC)cc1 (stereo not shown) [Compound 28],< 8
2,CCOC(=O)N1CCc2c([nH]c3ccc(Br)cc23)C1c1cccc(F)c1F (stereo not shown) [Compound 29],< 8
3,COc1ccc(C2c3[nH]c4ccc(Cl)cc4c3CCN2C(=O)OCC(C)C)cc1 (stereo not shown) [Compound 30],< 8
4,CCOC(=O)N1CCc2c([nH]c3ccc(Cl)cc23)C1c1ccc(C(F)(F)F)cc1 (stereo not shown) [Compound 31],< 8
5,CCOC(=O)N1CCc2c([nH]c3ccc(Br)cc23)C1c1cccc(C(F)(F)F)c1 (stereo not shown) [Compound 32],< 8
6,O=C(OCCCl)N1CCc2c([nH]c3ccc(Cl)cc23)C1c1ccc(C(F)(F)F)cc1 (stereo not shown) [Compound 33],< 8
7,COC(=O)N1CCc2c([nH]c3ccc(Cl)cc23)C1c1ccc(C(C)C)cc1 (stereo not shown) [Compound 34],< 8
8,O=C(OCCCl)N1CCc2c([nH]c3ccc(Cl)cc23)C1c1ccc(F)c(F)c1 (stereo not shown) [Compound 35],< 8
9,Cc1ccc(C2c3[nH]c4ccc(Cl)cc4c3CCN2C(=O)OC(C)C)cc1 (stereo not shown) [Compound 36],< 8
10,CCOC(=O)N1CCc2c([nH]c3ccc(Cl)cc23)C1c1cccc(C(F)(F)F)c1 (stereo not shown) [Compound 37],< 8
11,CCOC(=O)N1CCc2c([nH]c3ccc(Cl)cc23)C1c1ccccc1 (stereo not shown) [Compound 38],< 8
12,CCOC(=O)N1CCc2c([nH]c3ccc(Cl)cc23)C1c1ccc(F)c(F)c1 (stereo not shown) [Compound 39],< 8
13,CC(C)OC(=O)N1CCc2c([nH]c3ccc(Cl)cc23)C1c1ccc(Cl)cc1 (stereo not shown) [Compound 40],< 8
14,CCCOC(=O)N1CCc2c([nH]c3ccc(Cl)cc23)C1c1ccc(Br)cc1 (stereo not shown) [Compound 41],< 8
15,CCCOC(=O)N1CCc2c([nH]c3ccc(Cl)cc23)C1c1ccc(C)cc1 (stereo not shown) [Compound 42],< 8
16,COC(=O)N1CCc2c([nH]c3ccc(Cl)cc23)C1c1ccc(OC)cc1 (stereo not shown) [Compound 43],< 8
17,CCOC(=O)N1CCc2c([nH]c3ccc(Br)cc23)C1c1cccc(Br)c1 (stereo not shown) [Compound 44],< 8
18,CC(C)OC(=O)N1CCc2c([nH]c3ccc(Cl)cc23)C1c1ccc(C#N)cc1 (stereo not shown) [Compound 45],< 8
19,COC(=O)N1CCc2c([nH]c3ccc(Cl)cc23)C1c1ccc(Br)cc1 (stereo not shown) [Compound 46],8 to 40
20,CC(C)OC(=O)N1CCc2c([nH]c3ccc(Cl)cc23)C1c1ccc(Br)cc1 (stereo not shown) [Compound 47],8 to 40
21,Cc1ccc(C2c3[nH]c4ccc(Cl)cc4c3CCN2C(=O)OCCCl)cc1 (stereo not shown) [Compound 48],8 to 40
22,CCCOC(=O)N1CCc2c([nH]c3ccc(Cl)cc23)C1c1ccc(Cl)cc1 (stereo not shown) [Compound 49],8 to 40
23,CC(=O)N1CCc2c([nH]c3ccc(Br)cc23)C1c1ccc(Cl)cc1 (stereo not shown) [Compound 50],8 to 40
24,CCOC(=O)N1CCc2c([nH]c3ccc(Cl)cc23)C1c1cccc(F)c1 (stereo not shown) [Compound 51],8 to 40
25,COC(=O)N1CCc2c([nH]c3ccc(Cl)cc23)C1c1ccc(C)cc1 (stereo not shown) [Compound 52],8 to 40

row,SMILES,EC50 [nM]
1,COC(=O)N1CCc2c([nH]c3ccc(Cl)cc23)C1c1cccc(F)c1F (stereo not shown) [Compound 53],8 to 40
2,CCOC(=O)N1CCc2c([nH]c3ccc(Cl)cc23)C1c1ccc(Br)cc1 (stereo not shown) [Compound 54],8 to 40
3,O=C(OCCCl)N1CCc2c([nH]c3ccc(Cl)cc23)C1c1ccc(Cl)cc1 (stereo not shown) [Compound 55],8 to 40
4,CC(C)OC(=O)N1CCc2c([nH]c3ccc(Cl)cc23)C1c1ccc([N+](=O)[O-])cc1 (stereo not shown) [Compound 56],8 to 40
5,COc1ccc(C2c3[nH]c4ccc(Cl)cc4c3CCN2C(=O)OC(C)C)cc1 (stereo not shown) [Compound 57],8 to 40
6,O=C(OCCCl)N1CCc2c([nH]c3ccc(Cl)cc23)C1c1ccc(Br)cc1 (stereo not shown) [Compound 58],8 to 40
7,COc1ccc(C2c3[nH]c4ccc(Cl)cc4c3CCN2C(=O)Oc2ccccc2)cc1 (stereo not shown) [Compound 60],8 to 40
8,COc1ccc(C2c3[nH]c4ccc(Cl)cc4c3CCN2C(=O)OCCCl)cc1 (stereo not shown) [Compound 61],8 to 40
9,COC(=O)N1CCc2c([nH]c3ccc(Cl)cc23)C1c1ccc(C(F)(F)F)cc1 (stereo not shown) [Compound 62],8 to 40
10,CCOC(=O)N1CCc2c([nH]c3ccc(Br)cc23)C1c1cc(F)cc(F)c1 (stereo not shown) [Compound 64],8 to 40
11,COC(=O)N1CCc2c([nH]c3ccc(Br)cc23)C1c1ccccc1 (stereo not shown) [Compound 65],8 to 40
12,CCCOC(=O)N1CCc2c([nH]c3ccc(Cl)cc23)C1c1ccc([N+](=O)[O-])cc1 (stereo not shown) [Compound 66],8 to 40
13,CC(C)COC(=O)N1CCc2c([nH]c3ccc(Br)cc23)C1c1ccccc1 (stereo not shown) [Compound 67],8 to 40
14,COC(=O)N1CCc2c([nH]c3ccc(Cl)cc23)C1c1ccc(F)cc1 (stereo not shown) [Compound 68],8 to 40
15,CCCOC(=O)N1CCc2c([nH]c3ccc(Cl)cc23)C1c1cccc(Br)c1 (stereo not shown) [Compound 69],8 to 40
16,COC(=O)N1CCc2c([nH]c3ccc(Cl)cc23)C1c1ccc(Cl)cc1 (stereo not shown) [Compound 70],8 to 40
17,CCCOC(=O)N1CCc2c([nH]c3ccc(Cl)cc23)C1c1ccc(C#N)cc1 (stereo not shown) [Compound 71],8 to 40
18,CCCOC(=O)N1CCc2c([nH]c3ccc(Cl)cc23)C1c1cccc(Cl)c1 (stereo not shown) [Compound 72],8 to 40
19,ON1CCc2c([nH]c3ccc(Br)cc23)C1c1cccc(F)c1F (stereo not shown) [Compound 73],8 to 40
20,CCCOC(=O)N1CCc2c([nH]c3ccc(Cl)cc23)C1c1cccc(F)c1 (stereo not shown) [Compound 75],8 to 40
21,O=C(Oc1ccccc1)N1CCc2c([nH]c3ccc(Br)cc23)C1c1ccccc1 (stereo not shown) [Compound 76],8 to 40
22,CCOC(=O)N1CCc2c([nH]c3ccc(Cl)cc23)C1c1cc(F)cc(F)c1 (stereo not shown) [Compound 77],8 to 40
23,CCOC(=O)N1CCc2c([nH]c3ccc(Br)cc23)C1c1ccc(F)c(F)c1 (stereo not shown) [Compound 78],8 to 40

# Same assay, conditions: Homo sapiens, HeLa cells, hypoxic conditions (1% O2, 5% CO2)
row,SMILES,EC50 [nM]
1,O=C(Oc1ccc(F)cc1)N1CCc2c([nH]c3ccc(Cl)cc23)C1c1ccc(OCCNc2nccs2)cc1 (stereo not shown) [#837],< 8
2,Cc1cnc(NCCOc2ccc(C3c4[nH]c5ccc(Cl)cc5c4CCN3C(=O)Oc3ccc(F)cc3)cc2)s1 (stereo not shown) [#838],< 8
3,O=C(Oc1ccc(Cl)cc1)N1CCc2c([nH]c3ccc(Cl)cc23)C1c1ccc(OCCNc2nccs2)cc1 (stereo not shown) [#841],< 8
4,Cc1cnc(NCCOc2ccc(C3c4[nH]c5ccc(Cl)cc5c4CCN3C(=O)Oc3ccc(Cl)cc3)cc2)s1 (stereo not shown) [#842],< 8
5,O=C(Oc1ccc(Cl)cc1)N1CCc2c([nH]c3ccc(Cl)cc23)C1c1ccc(OCCNc2cccnc2)cc1 (stereo not shown) [#843],< 8

# Reference: patent publication US8076352B2, “Administration of carboline derivatives useful in the treatment of cancer and other diseases” (PTC Therapeutics, Inc., priority 2004, dated 2011)
